What follows are compounds tested against T1, human PAH with the R408W mutation (Homo sapiens, UniProt P00439, R408W) (assay: Cell Based Phenylalanine Flux Assay). Settings: A375 cells expressing human R408W PAH; 24 hrs compound incubation; 13C-Tyrosine by LC-MS; average where tested multiple times; read-out: AC50.
T1 construct: expressed in transfected cells
T1 sequence (P00439 1-452 R408W): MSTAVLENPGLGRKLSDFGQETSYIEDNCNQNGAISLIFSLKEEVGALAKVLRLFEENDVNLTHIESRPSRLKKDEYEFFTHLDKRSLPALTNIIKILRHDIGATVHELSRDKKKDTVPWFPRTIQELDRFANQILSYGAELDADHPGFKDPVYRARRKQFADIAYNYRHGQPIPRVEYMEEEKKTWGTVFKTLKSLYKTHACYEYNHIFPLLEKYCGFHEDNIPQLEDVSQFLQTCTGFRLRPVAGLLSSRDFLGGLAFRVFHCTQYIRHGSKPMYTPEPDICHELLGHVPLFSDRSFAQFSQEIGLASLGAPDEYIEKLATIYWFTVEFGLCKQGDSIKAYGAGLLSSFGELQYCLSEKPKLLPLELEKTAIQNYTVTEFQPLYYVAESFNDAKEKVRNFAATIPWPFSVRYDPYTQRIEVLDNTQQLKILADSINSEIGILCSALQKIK
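Also: after compound treatment, cells received sepiapterin plus isotope-labelled Phenylalanine for 4 hours, then labelled Tyrosine in the medium was quantified, 10-point 2-fold dilution series run in duplicate.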

AC50	SMILES
1 to 5 µM	Cc1cccn2nc([C@H]3c4nc[nH]c4CCN3C(=O)c3nnc(C4(C)CC4)o3)cc12 [Example 1322, (R)-(5-(1-methylcyclopropyl)-1,3,4-oxadiazol-2-yl)(4-(4-methylpyrazolo[1,5-a]pyridin-2-yl)-6,7-dihydro-1H-imidazo[4,5-c]pyridin-5(4H)-yl)methanone]
< 0.5 µM	Cc1cccn2nc([C@@H]3c4nc[nH]c4CCN3C(=O)c3nnc(C4(C)CC4)o3)cc12 [Example 1323, (S)-(5-(1-methylcyclopropyl)-1,3,4-oxadiazol-2-yl)(4-(4-methylpyrazolo[1,5-a]pyridin-2-yl)-6,7-dihydro-1H-imidazo[4,5-c]pyridin-5(4H)-yl)methanone]
1 to 5 µM	CC1(c2nnc(C(=O)N3CCc4[nH]cnc4[C@@H]3c3cc4c(C(F)(F)F)cccn4n3)o2)CC1 [Example 1324, (R)-(5-(1-methylcyclopropyl)-1,3,4-oxadiazol-2-yl)(4-(4-(trifluoromethyl)pyrazolo[1,5-a]pyridin-2-yl)-6,7-dihydro-1H-imidazo[4,5-c]pyridin-5(4H)-yl)methanone]
< 0.5 µM	CC1(c2nnc(C(=O)N3CCc4[nH]cnc4[C@H]3c3cc4c(C(F)(F)F)cccn4n3)o2)CC1 [Example 1325, (S)-(5-(1-methylcyclopropyl)-1,3,4-oxadiazol-2-yl)(4-(4-(trifluoromethyl)pyrazolo[1,5-a]pyridin-2-yl)-6,7-dihydro-1H-imidazo[4,5-c]pyridin-5(4H)-yl)methanone]
< 0.5 µM	Cc1ncccc1-c1nnc(C(=O)N2CCc3[nH]cnc3[C@H]2c2cc3c(F)cccn3n2)o1 [Example 1328, (S)-(4-(4-fluoropyrazolo[1,5-a]pyridin-2-yl)-6,7-dihydro-1H-imidazo[4,5-c]pyridin-5(4H)-yl)(5-(2-methylpyridin-3-yl)-1,3,4-oxadiazol-2-yl)methanone]
< 0.5 µM	Cc1ncccc1-c1nnc(C(=O)N2CCc3[nH]cnc3[C@H]2c2cc3c(C)cccn3n2)o1 [Example 1330, (S)-(4-(4-methylpyrazolo[1,5-a]pyridin-2-yl)-6,7-dihydro-1H-imidazo[4,5-c]pyridin-5(4H)-yl)(5-(2-methylpyridin-3-yl)-1,3,4-oxadiazol-2-yl)methanone]
1 to 5 µM	Cc1ncccc1-c1nnc(C(=O)N2CCc3[nH]cnc3[C@@H]2c2cc3c(C)cccn3n2)o1 [Example 1331, (R)-(4-(4-methylpyrazolo[1,5-a]pyridin-2-yl)-6,7-dihydro-1H-imidazo[4,5-c]pyridin-5(4H)-yl)(5-(2-methylpyridin-3-yl)-1,3,4-oxadiazol-2-yl)methanone]
< 0.5 µM	Cc1ncccc1-c1nnc(C(=O)N2CCc3[nH]cnc3[C@H]2c2cc3cccc(Cl)n3n2)o1 [Example 1334, (S)-(4-(7-chloropyrazolo[1,5-a]pyridin-2-yl)-6,7-dihydro-1H-imidazo[4,5-c]pyridin-5(4H)-yl)(5-(2-methylpyridin-3-yl)-1,3,4-oxadiazol-2-yl)methanone]
> 5 µM	Cc1ncccc1-c1nnc(C(=O)N2CCc3[nH]cnc3[C@@H]2c2cc3cccc(Cl)n3n2)o1 [Example 1335, (R)-(4-(7-chloropyrazolo[1,5-a]pyridin-2-yl)-6,7-dihydro-1H-imidazo[4,5-c]pyridin-5(4H)-yl)(5-(2-methylpyridin-3-yl)-1,3,4-oxadiazol-2-yl)methanone]
1 to 5 µM	Cc1cccc2cc([C@H]3c4nc[nH]c4CCN3C(=O)c3nnc(-c4ncccn4)o3)nn12 [Example 1336, (R)-(4-(7-methylpyrazolo[1,5-a]pyridin-2-yl)-6,7-dihydro-1H-imidazo[4,5-c]pyridin-5(4H)-yl)(5-(pyrimidin-2-yl)-1,3,4-oxadiazol-2-yl)methanone]
0.5 to 1 µM	Cc1cccc2cc([C@@H]3c4nc[nH]c4CCN3C(=O)c3nnc(-c4ncccn4)o3)nn12 [Example 1337, (S)-(4-(7-methylpyrazolo[1,5-a]pyridin-2-yl)-6,7-dihydro-1H-imidazo[4,5-c]pyridin-5(4H)-yl)(5-(pyrimidin-2-yl)-1,3,4-oxadiazol-2-yl)methanone]

— patent US20230365592A1 (Agios Pharmaceuticals, Inc., priority 2022, published 2023)
